US20110010099A1, “Correlation Analysis of Biological Systems” (priority 2005, published 2011)

Assays:
Type in all cases: in vivo
[1] = system: liver of male Wistar Hannover rats; assay: Rat hepatotoxicity study: liver morphology / histopathology for steatosis; conditions: 7 days dosing, sacrifice day 8, male Wistar Hannover rats
Excerpt: The primary objective of the study was to discover biomarkers in plasma of hepatic steatotic processes. In the course of this study, multiple molecular profiling techniques and data analysis methodologies were employed. A corollary objective of this study was to elucidate mechanisms underlying hepatic steatosis induced by the drug.
The study was designed to generate tissue and body fluid samples from groups of animals exposed for varying times at different doses to a drug previously shown to produce toxic steatosis of the liver.
(§1) Five Wistar Hannover male rats were used per group. Three groups were dosed for 7 days (control, low and intermediate dose) and urine collected twice daily for up to 7 days. One group was dosed once with a high dose of the drug and kept in a metabolism cage for a recovery study. In addition, three groups (control, intermediate and high dose) were dosed once and sacrificed after 24 hours. Plasma and liver tissue samples were collected from all groups at necropsy. Clinical pathology was performed and histopathological evaluations were provided.
The study was designed to generate tissue and body fluid samples from groups of animals treated for varying times and with different doses of ABC123. The different time points and dosing schedules were intended to allow the identification of biomarkers of steatosis over different times and doses.

[2] = system: plasma analytes of male Wistar Hannover rats; assay: Plasma GC-MS metabolite profiling in rat hepatotoxicity study; conditions: Group 3 drug-administered animals compared to Group 1 animals
Experimental: as §1
Liver and plasma lipid LC-MS. Samples (liver or plasma) were treated with isopropanol to precipitate the protein and to extract the lipid metabolites. […] Resulting mass spectra were peak detected with IMPRESS (proprietary software, BG Medicine, Inc., Waltham, Mass.) and aligned/normalized with Equest and WinLin (proprietary software, BG Medicine, Inc., Waltham, Mass.). […] Metabolites detected with this approach include polar and non-polar lipids. […] The samples were detected with electron impact ionization on an Agilent 5973 MSD. […] Metabolites detected with this method include: alcohols, aldehydes and cyclohexanols, amino acids, acyl amino acids, succinylamino acids, amines, aromatic compounds, fatty acids (>C6), organic acids, phospho-organic acids, sugars, sugar acids, sugar amines, and sugar phosphates. […]

[3] = system: Enzyme_ABC in liver tissue; assay: Liver LC-MS proteomics profiling in rat hepatotoxicity study; conditions: Group 3 drug-administered animals relative to Group 1 control animals
Experimental: as §1
• Sample: 100 mg of liver dissected from the thawed liver sample was cut into four 25 mg pieces and homogenized. • Clarification/Fractionation: Unbroken cells, nuclei and extracellular debris were removed using low-G centrifugation, and the resulting clarified homogenate was then subjected to membrane/cytosol fractionation using high-speed ultracentrifugation. • Protein Fractionation of Cytosol: The total cytosolic protein was subjected to C4 reversed-phase column chromatography to isolate 3 fractions for proteomic analysis. […] The resulting membrane tryptic peptide fraction was dried in vacuo. • Profiling of Peptides: Cytosolic peptides from the three acidic peptide sets and the membrane tryptic peptide fraction were quantitatively analyzed for differential expression via reversed-phase LC-ESI-MS. […]

[4] = system: liver mRNA transcripts (Enzyme_ABC, Enzyme_DEF); assay: Liver mRNA transcript profiling (Affymetrix U34A) in rat hepatotoxicity study; conditions: Group 3 drug-administered animals relative to Group 1 control animals
Experimental: Affymetrix microarray processing was carried out on liver tissue samples from 35 animals distributed among the seven experimental groups.
An additive effect on the log-transformed signal related to hybridization day was modeled, and the triplicate control samples were used to estimate the effect.

## Cn1c(=O)c2c(ncn2CC2OCCO2)n(C)c1=O [ABC123]
[1]; Group 2 (lowest dose): 20 mg/kg/day
  steatosis upon examination of the livers using standard morphology techniques: no evidence of steatosis
[1]; Group 3: 200 mg/kg/day
  steatosis upon examination of the livers using standard morphology techniques: morphological steatosis
[2]
  increase in abundance of Metabolite_XYZ in plasma (plasma GC-MS platform): approximately 1.4 fold
[3]
  reduction in abundance of Enzyme_ABC in liver tissue (proteomics platform): approximately 2 fold
[4]
  reduction in abundance of Enzyme_ABC in liver tissue (mRNA transcript platform): approximately 1.7 fold
